Source: ChEMBL document CHEMBL1133015 (J Med Chem, 2000)
Each block holds one compound with its values, some of them ahead of it.

Experiments:
Substance-K receptor [1] = target: T1, Substance-K receptor (Homo sapiens, UniProt P21452); assay: Tested for binding affinity against Tachykinin receptor 2 expressed in CHO cells, using [125]SP as radioligand.; type: cell-based
T1 sequence (P21452 whole entry): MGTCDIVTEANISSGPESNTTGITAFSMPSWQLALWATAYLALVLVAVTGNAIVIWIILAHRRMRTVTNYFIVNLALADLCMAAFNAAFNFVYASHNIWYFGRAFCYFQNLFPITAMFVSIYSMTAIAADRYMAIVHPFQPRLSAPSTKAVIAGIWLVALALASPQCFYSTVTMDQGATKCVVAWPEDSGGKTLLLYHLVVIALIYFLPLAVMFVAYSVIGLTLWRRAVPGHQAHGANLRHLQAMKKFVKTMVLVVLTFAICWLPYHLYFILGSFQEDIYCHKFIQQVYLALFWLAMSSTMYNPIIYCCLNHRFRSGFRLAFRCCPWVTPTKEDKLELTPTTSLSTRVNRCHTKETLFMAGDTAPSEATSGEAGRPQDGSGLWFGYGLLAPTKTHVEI

Substance-P receptor [2] = target: Substance-P receptor (Homo sapiens, UniProt P25103, H265A); assay: Tested for binding affinity against H265A mutant NK1 receptor using [125]SP radioligand in COS cells.; type: cell-based
Substance-P receptor [3] = target: Substance-P receptor (Homo sapiens, UniProt P25103, H197A); assay: Tested for binding affinity against H197A mutant NK1 receptor using [125]SP radioligand in COS cells.; type: cell-based
Substance-P receptor [4] = target: T2, Substance-P receptor (Homo sapiens, UniProt P25103); assay: Tested for binding affinity against human wild type NK1 receptor expressed in CHO cells, using [125]SP as radioligand.; type: cell-based
Substance-P receptor [5] = target: Substance-P receptor (Homo sapiens, UniProt P25103, Q165A); assay: Tested for binding affinity against Q165A mutant NK1 receptor expressed in CHO cells, using [125]SP as radioligand; type: cell-based
Substance-P receptor [6] = target: T2, Substance-P receptor; assay: Tested for binding affinity against Tachykinin receptor 1 expressed in CHO cells, using [125]SP as radioligand at 1 uM; type: cell-based
[7] = system: Substance-P receptor (Homo sapiens), P25103 [Q165A]; assay: Inhibition against Q165A mutant NK1 receptor expressed in CHO cells, using [125]SP as radioligand at 1 uM; type: cell-based
Substance-P receptor [8] = target: T2, Substance-P receptor; assay: Tested for binding affinity against Tachykinin receptor 1 expressed in CHO cells, using [125]SP as radioligand.; type: cell-based
Substance-P receptor [9] = target: T2, Substance-P receptor; assay: Tested for binding affinity against Tachykinin receptor 1 expressed in CHO cells, using [125]SP as radioligand; NA - did not bind; type: cell-based
Substance-K receptor [10] = target: T1, Substance-K receptor; assay: Tested for binding affinity against Tachykinin receptor 2 expressed in CHO cells, using [125]SP as radioligand; NA - did not bind; type: cell-based
[11] = target: Somatostatin receptor type 4 (Homo sapiens, UniProt P31391); assay: Tested for binding affinity against human somatostatin receptor subtype 4 (hSSTR4)
Somatostatin receptor = assay: Tested for binding affinity against somatostatin receptor on AtT-20 cells; type: cell-based; settings: att20
Substance-P receptor [12] = target: T2, Substance-P receptor; assay: Tested for binding affinity against Tachykinin receptor 1

Chain of Substance-P receptor (Homo sapiens, UniProt P25103, H265A) (P25103 whole entry H265A): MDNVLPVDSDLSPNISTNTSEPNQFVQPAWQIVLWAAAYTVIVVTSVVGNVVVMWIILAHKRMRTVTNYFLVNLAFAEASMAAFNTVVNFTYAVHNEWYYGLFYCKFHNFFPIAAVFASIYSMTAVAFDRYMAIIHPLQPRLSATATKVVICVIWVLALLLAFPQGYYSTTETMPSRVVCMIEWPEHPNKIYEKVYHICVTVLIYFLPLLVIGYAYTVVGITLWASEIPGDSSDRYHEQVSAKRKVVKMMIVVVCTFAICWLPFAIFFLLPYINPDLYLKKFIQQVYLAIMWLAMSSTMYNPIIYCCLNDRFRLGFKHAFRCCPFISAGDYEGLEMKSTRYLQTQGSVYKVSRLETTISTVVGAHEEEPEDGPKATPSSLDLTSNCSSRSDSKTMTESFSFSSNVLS
T2 sequence (P25103 whole entry): as the sequence (P25103 whole entry H265A) above, with A265H counted along it
Chain of Substance-P receptor (Homo sapiens, UniProt P25103, H197A) (P25103 whole entry H197A): as the sequence (P25103 whole entry H265A) above, with H197A, A265H counted along it
Chain of Substance-P receptor (Homo sapiens), P25103 [Q165A] (P25103 whole entry Q165A): as the sequence (P25103 whole entry H265A) above, with Q165A, A265H counted along it
Chain of Somatostatin receptor type 4 (P31391 whole entry): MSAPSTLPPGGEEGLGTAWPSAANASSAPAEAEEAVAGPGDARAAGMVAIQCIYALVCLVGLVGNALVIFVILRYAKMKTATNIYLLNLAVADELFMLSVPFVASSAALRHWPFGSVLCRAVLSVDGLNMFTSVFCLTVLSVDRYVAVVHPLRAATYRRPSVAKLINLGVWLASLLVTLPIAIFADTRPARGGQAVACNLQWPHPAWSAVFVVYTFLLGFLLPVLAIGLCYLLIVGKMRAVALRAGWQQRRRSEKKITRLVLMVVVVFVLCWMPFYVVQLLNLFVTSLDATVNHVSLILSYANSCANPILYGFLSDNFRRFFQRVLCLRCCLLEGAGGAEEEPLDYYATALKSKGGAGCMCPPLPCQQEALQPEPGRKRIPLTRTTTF
Chain of Substance-P receptor (Homo sapiens, UniProt P25103, Q165A) (P25103 whole entry Q165A): as the sequence (P25103 whole entry H265A) above, with Q165A, A265H counted along it

IC50 (Substance-K receptor [1]): 0.73 µM
IC50 (Substance-P receptor [2]): 8.2 µM
IC50 (Substance-P receptor [3]): 2.7 µM
IC50 (Substance-P receptor [4]): 1.4 µM
IC50 (Substance-P receptor [5]): 3.6 µM
Structure (SMILES): C[C@H](NC(=O)CN)C(=O)N[C@H]1CSSC[C@@H](C(=O)O)NC(=O)[C@H](CO)NC(=O)[C@H]([C@@H](C)O)NC(=O)[C@H](Cc2ccccc2)NC(=O)[C@H]([C@@H](C)O)NC(=O)[C@H](Cc2ccc(F)cc2)NC(=O)[C@H](Cc2c[nH]c3ccccc23)NC(=O)[C@H](Cc2ccccc2)NC(=O)[C@H](Cc2ccccc2)NC(=O)[C@H](CC(N)=O)NC(=O)[C@H](CCCCN)NC1=O

inhibition (Substance-P receptor [6]): 7%
Structure (SMILES): C[C@H](NC(=O)CN)C(=O)N[C@H]1CSSC[C@H](C(=O)O)NC(=O)[C@H](CO)NC(=O)[C@H]([C@@H](C)O)NC(=O)[C@H](Cc2ccccc2)NC(=O)[C@H]([C@@H](C)O)NC(=O)[C@H](CCCCN)NC(=O)[C@H](Cc2c[nH]c3ccccc23)NC(=O)[C@H](Cc2ccccc2)NC(=O)[C@H](Cc2ccccc2)NC(=O)[C@H](CC(N)=O)NC(=O)[C@H](CCCCN)NC1=O

inhibition [7]: 30%
Structure (SMILES): C[C@H](NC(=O)CN)C(=O)N[C@H]1CSSC[C@H](C(=O)O)NC(=O)[C@H](CO)NC(=O)[C@H]([C@@H](C)O)NC(=O)[C@H](Cc2ccccc2)NC(=O)[C@H]([C@@H](C)O)NC(=O)[C@H](Cc2ccc(F)cc2)NC(=O)[C@@H](Cc2c[nH]c3ccccc23)NC(=O)[C@H](Cc2ccccc2)NC(=O)[C@H](Cc2ccccc2)NC(=O)[C@H](CC(N)=O)NC(=O)[C@H](CCCCN)NC1=O

inhibition [7]: 37%
Structure (SMILES): C[C@@H](O)[C@@H]1NC(=O)[C@H](Cc2ccc(F)cc2)NC(=O)[C@@H](Cc2c[nH]c3ccccc23)NC(=O)[C@H](Cc2ccccc2)NC(=O)[C@H](Cc2ccccc2)NC(=O)[C@H](CC(N)=O)NC(=O)[C@H](CCCCN)NC(=O)[C@@H](N)CSSC[C@H](C(=O)O)NC(=O)[C@H](CO)NC(=O)[C@H]([C@@H](C)O)NC(=O)[C@H](Cc2ccccc2)NC1=O

IC50 (Substance-K receptor [1]): 0.027 µM
IC50 (Substance-P receptor [2]): 6.1 µM
IC50 (Substance-P receptor [3]): 0.95 µM
IC50 (Substance-P receptor [4]): 0.24 µM
IC50 (Substance-P receptor [8]): 0.22 µM
Structure (SMILES): C[C@H](NC(=O)CN)C(=O)N[C@H]1CSSC[C@@H](C(=O)O)NC(=O)[C@H](CO)NC(=O)[C@H]([C@@H](C)O)NC(=O)[C@H](Cc2ccccc2)NC(=O)[C@H]([C@@H](C)O)NC(=O)[C@H](Cc2ccc(F)cc2)NC(=O)[C@@H](Cc2c[nH]c3ccccc23)NC(=O)[C@H](Cc2ccccc2)NC(=O)[C@H](Cc2ccccc2)NC(=O)[C@H](CC(N)=O)NC(=O)[C@H](CCCCN)NC1=O

IC50 (Substance-P receptor [9]): Not Active
IC50 (Substance-K receptor [10]): Not Active
Structure (SMILES): C[C@H](NC(=O)CN)C(=O)N[C@H]1CSSC[C@H](C(=O)O)NC(=O)[C@H](CO)NC(=O)[C@H]([C@@H](C)O)NC(=O)[C@H](Cc2ccccc2)NC(=O)[C@H]([C@@H](C)O)NC(=O)[C@H](CCCCN)NC(=O)[C@@H](Cc2c[nH]c3ccccc23)NC(=O)[C@H](Cc2ccccc2)NC(=O)[C@H](Cc2ccccc2)NC(=O)[C@H](CC(N)=O)NC(=O)[C@H](CCCCN)NC1=O

IC50 [11]: 0.1 µM
IC50 (Somatostatin receptor): 15 µM
Structure (SMILES): C[C@@H](O)[C@@H]1NC(=O)[C@H](CCCCN)C2C(=O)[C@@H](Cc3c2[nH]c2ccccc32)NC(=O)[C@H](Cc2ccccc2)NC(=O)[C@@H]2CCCC2C(=O)[C@H](Cc2ccccc2)NC1=O (stereo not given in full)

IC50 (Substance-K receptor [1]): 0.85 µM
Structure (SMILES): C[C@H](NC(=O)CN)C(=O)N[C@H]1CSSC[C@@H](C(=O)O)NC(=O)[C@H](CO)NC(=O)[C@H]([C@@H](C)O)NC(=O)[C@H](Cc2ccccc2)NC(=O)[C@H]([C@@H](C)O)NC(=O)[C@H](CCCCN)NC(=O)[C@H](Cc2c[nH]c3ccccc23)NC(=O)[C@H](Cc2ccccc2)NC(=O)[C@H](Cc2ccccc2)NC(=O)[C@H](CC(N)=O)NC(=O)[C@H](CCCCN)NC1=O

IC50 (Substance-P receptor [12]): 0.12 µM
Structure (SMILES): NCCCCCOC[C@H]1O[C@@H](OCCc2c[nH]c3ccccc23)[C@H](OCc2ccccc2)[C@@H](OCc2ccccc2)[C@@H]1OCc1ccccc1

IC50 (Substance-K receptor [1]): 0.046 µM
IC50 (Substance-P receptor [2]): 9.6 µM
IC50 (Substance-P receptor [3]): 0.9 µM
IC50 (Substance-P receptor [4]): 0.26 µM
IC50 (Substance-P receptor [8]): 0.25 µM
Structure (SMILES): C[C@@H](O)[C@@H]1NC(=O)[C@H](Cc2ccccc2)NC(=O)[C@H]([C@@H](C)O)NC(=O)[C@H](Cc2ccc(F)cc2)NC(=O)[C@@H](Cc2c[nH]c3ccccc23)NC(=O)[C@H](Cc2ccccc2)NC(=O)[C@H](Cc2ccccc2)NC(=O)[C@H](CC(N)=O)NC(=O)[C@H](CCCCN)NC(=O)[C@@H](N)CSSC[C@@H](C(=O)O)NC(=O)[C@H](CO)NC1=O

IC50 (Substance-P receptor [12]): 0.028 µM
Structure (SMILES): C[C@@H](O)[C@@H]1NC(=O)[C@H](Cc2ccc(F)cc2)C2C(=O)[C@@H](Cc3c2[nH]c2ccccc32)NC(=O)[C@H](Cc2ccccc2)NC(=O)[C@@H]2CCCC2C(=O)[C@H](Cc2ccccc2)NC1=O (stereo not given in full)
